From patent US6696433B2, “Use of sex steroids function modulators to treat wounds and fibrotic disorders” (Renovo Limited, priority 1996, dated 2004) come the findings set out here.

Assay [1] relates to wound repair. Nature of the assay: Supplementation of individuals with DHEA, wound healing in the aged. Type of assay: in vivo.
The test system of assay [2] is 4 mm punch biopsy wounds of the upper inner arm. Kind of assay: Topical oestrogen patch clinical trial of wound healing in elderly men and women. Type of assay: in vivo, human. Conditions: patch applied to the wound for 24 hours post-wounding. Here is the method: Approval for this study was given by the local Ethics Committee. Forty health-status defined volunteers split into four groups: (i) GROUP 3A comprised ten women with mean age 76.3 yr (Sd 5.6) who received oestrogen supplements (25 μg/24 hrs of oestradiol) (ii) GROUP 3B comprised ten women with mean age 72.5 yr (Sd 7.1) who received placebo instead of oestrogen. (iii) GROUP 3C comprised ten men with mean age 69.6 yr (Sd 3.6) who received oestrogen supplements (ii) GROUP 3D comprised ten men with mean age 71.8 yr (Sd 8.9) who received placebo instead of oestrogen. After informed consent subjects from each of Groups 3A, 3B, 3C and 3D underwent two 4 mm punch biopsies from the upper inner arm (a non sun-exposed site) following local infiltration with 1 ml 1% lignocaine. Each biopsy of normal skin was bisected and one-half embedded in Optimal Cutting Temperature compound (Miles Inc. Elkhart, Ind.), frozen over liquid nitrogen, and stored at −70° C., and one-half snap-frozen in liquid nitrogen and stored at −70° C. The area for biopsy was covered by a 2×3 cm patch (placebo Groups 3B and 3D or active oestradiol 3A and 3C) through which the biopsies were made. The patch was covered by a Multisorb dry gauze dressing (Smith & Nephew) and both were removed after 24 hrs. The active patches contained sufficient oestradiol such that the wound sites were exposed to 25 μg/24 hrs of oestradiol. Five subjects from Groups 3A, 3B, 3C and 3D underwent re-excision of the wounds at day 7 post-wounding, and the other five subjects from each group at day 84 post-wounding. The left upper inner arm was cleaned with isopropyl alcohol, elliptical excisions of the wounds were made following 1% lignocaine infiltration and two sutures were used to close the gap. Each wound was bisected and processed as described above (3.1.3). 7 μm paraffin-embedded sections were strained with H&E and Masson's Trichrome. The rate of re-epithelialisation (at day 7 post-wounding), and wound sizes as determined by planimetry, were determined with image analysis using an Olympus Vanox camera and PC image capture system. Collagen quantity within the wound was determined by two observers blinded to the identity of the specimen on the following scale +=minimal quantities; ++=less than normal skin; +++=similar to normal skin; ++++=greater than normal skin. The wound stiffness at day 80 was determined using the non-disruptive Dimensional Analysis System (Das). Previous studies have correlated wound breaking strength values (ultimate pressure at failure) to wound stiffness using this system. The system applies a multiaxial load (negative pressure) to the wound and measures the deformation due to the load of two reflective targets placed at the wound edges, using a high resolution camera and video processor. Pressure was applied to a maximum of 100 mmHg and then released, Stiffness was measured between 20 and 80 mmHg.

In assay [3] the test system is full thickness incisional wounds. Kind of assay: Incisional wound healing in OVX and sham rats, histology at day 7 post-wounding. Also on record: key to NEW COLLAGEN / CELLS: + = little/few; ++++ = lots); key to EPITHELIALISATION: Y = epithelialised. The class given is in vivo, Female Sprague Dawley rats. An excerpt:
Female Sprague Dawley rats were housed together in three groups (1A, 1B and 1C) of nine to allow for synchronised oestrus cycling. Group 1A were ovariectomised (OVX) 18 days prior to wounding to allow circulating sex hormone levels to be eliminated. Group 1B (control) were untreated and Group 1C had the same operative procedure as the OVX (Group 1A), but without the removal of the ovaries, to ensure that the OVX operative procedure had no effect on the wounding studies (sham).
17 β-oestradiol (Sigma) was prepared as sterile 0.1% and 1% solutions in phosphate buffered saline (PBS) containing 0.1% and 1% 2-hydroxypropyl-β-cyclodextrin respectively, 2-hydroxypropyl-β-cyclodextrin is used in preparations as a carrier molecule to increase the water solubility of β-oestradiol. PBS/cyclodextrin was used as a vehicle control.
Animals from Groups 1A, 1B and 1C were given 4×1 cm length full thickness incisional wounds at 4.5-5.5 cm and 7.5-8.5 cm below the base of the skull, 1 cm either side of the midline. A single 100 μl intradermal injection was then given at each of the four wound sites. Each of the wounds (a total of 36 wounds on 9 rats in each group) received either 100 μl of oestradiol (0.1% or 1%), 100 μl of vehicle control (0.1% or 1% cyclodextrin) or was left unmanipulated (no injection).
The wounds were allowed to heal for 7 days after which the wounded tissue was excised for histological analysis.
7 μm paraffin-embedded sections were stained with H&E and Masson's Trichrome. The rate of re-epithelialisation (at day 7 post-wounding), and wound sizes as determined by planimetry, were determined with image analysis using an Olympus Vanox camera and PC image capture system. Collagen quantity within the wound was determined by two observers blinded to the identity of the specimen.

Where [4] appears, read: 0.1% oestradiol with 0.1% cyclodextrin vehicle, single 100 μl intradermal injection, OVX rats.
Setting [5] is: 0.1% oestradiol with 0.1% cyclodextrin vehicle, single 100 μl intradermal injection, SHAM rats.
The mark [6] stands for this setting: 1% oestradiol with 1% cyclodextrin vehicle, single 100 μl intradermal injection, OVX rats.
The mark [7] stands for this setting: 1% oestradiol with 1% cyclodextrin vehicle, single 100 μl intradermal injection, SHAM rats.

Regarding `C[C@]12CC[C@H](O)CC1=CC[C@@H]1[C@@H]2CC[C@]2(C)C(=O)CC[C@@H]12` [DHEA, Dehydroepiandrosterone], the “rate of wound repair” value in assay [1] is “stimulating the rate of wound repair”.

With `C[C@]12CC[C@@H]3c4ccc(O)cc4CC[C@H]3[C@@H]1CC[C@@H]2O` [OESTRADIOL, 17 β-oestradiol], in assay [2], the “rate at which the wound heals” value was “sufficient to improve the rate at which the wound heals”. Moreover, the CELLS result in assay [3] (setting [4]) was “+”. Further, the EPITHELIALISATION entry in assay [3] (setting [4]), in assay [3] (setting [5]), in assay [3] (setting [6]) and in assay [3] (setting [7]) was “Y” throughout. Further, in assay [3] (setting [4]), the “NEW COLLAGEN” value is “++++”. Further, the “WOUND WIDTH” value in assay [3] (setting [4]) is “narrow”; in assay [3] (setting [5]), “narrow”; in assay [3] (setting [6]), “narrow”; in assay [3] (setting [7]) it was “wide”. The “rate of wound healing” value in assay [3] (1% β-oestradiol, OVX group wounds, compared to control PBS treated and unmanipulated wounds) was “increased rate of wound healing”; in assay [3] (single application of 0.1% β-oestradiol, OVX wounds, compared to control wounds), “accelerated wound healing”.
